Test results published in patent US5530157A, “Anti-inflammatory benzoic acid derivatives” (Scios Nova Inc., priority 1995, dated 1996).
Where two headings read alike, the source gives them in different places.

Key:
[1] = tested on: neutrophil accumulation in thioglycollate-induced peritonitis; assay: Neutrophil accumulation in thioglycollate-induced peritonitis in the mouse; type: in vivo, Male CF-1 mice; settings: for ED50: iv
Method: (§1) Two in vivo models of inflammation were used to assess the anti-inflammatory activity of compounds of the invention. One model measures neutrophil accumulation in thioglycollate-induced peritonitis in mice. The other measures neutrophil accumulation in the cutaneous Reverse Passive Arthus reaction in rats. These assays were carried out as follows.
Male CF-1 mice were pretreated with individual test compound (4-6 mice per compound) 10 min prior to thioglycollate treatment. Test compounds at various doses, solubilized in 1% Tween, pH 9.0, were injected into the tail vein. Thioglycollate (4% Brewer's thioglycollate broth in water) was administered intraperitoneally in 1 ml volume. Peritoneal lavages, performed 4 hrs following thioglycollate treatment, involved injecting 5 ml of Dulbecco's phosphate buffered saline with 0.1% bovine serum albumin and 10 units/ml heparin into the peritoneal cavity, massaging the peritoneum, and then removing fluid through peritoneal aspiration. The lavage fluid was centrifuged, red blood cells lysed with water, cells were resuspended in Hank's balanced salt solution, and leukocytes were counted with a modified Neubauer hemacytometer. Leukocyte preparations (cytospin slides) were differentially stained with a Giemsa stain. Neutrophil accumulation expressed as a percent of control was calculated after the subtraction of baseline neutrophils from all treatement groups (see Table III).

[2] = tested on: neutrophil accumulation in the cutaneous Reverse Passive Arthus reaction; assay: Neutrophil accumulation in the cutaneous Reverse Passive Arthus reaction in rats; type: in vivo, Male Sprague Dawley rats; settings: rat, i.p.; for Reverse Passive Arthus % Inhibition: 1.4 mg/kg, n = 4; for ED50: Neutrophil, ip, 4 h, Reverse Passive Arthus, read-out: ID50 (the source's name)
Method: as §1
Male Sprague Dawley rats were treated with test compounds by intraperitoneal injection of 1.4 mg/kg in 1% Tween, pH 9.0 vehicle. After 1 hr, animals were lightly anesthetized with 2% isoflurane, v/v, injected by intravenous route with 1 ml of 5 mg/ml human serum albumin, immediately follwed by intracutaneous administration of 75 μl of a solution of 4 mg/ml of goat anti-human serum albumin. Animals were anesthetized 4 hrs after antigen-antibody treatment. Punch biopsies of the dorsal injection sites were performed with one biopsy weighed for wet/dry weight ratio determination. The remaining two skin biopsies were used for measuring myeloperoxidase content and were minced, weighed and homogenized for 30 sec in 20 mM phosphate buffer (pH 7.4). After centrifugation (20 min, 6000×g, 4° C.) the supernatant was decanted and the pellet resuspended in 50 mM phosphate buffer (pH 6.0) containing 0.5% hexadecyltrimethylammonium bromide. After three freeze/thaw cycles, the pellet was centrifuged (15 min, 20000×g, 4° C.) and 100 μl aliquots were added to 2.9 ml of assay buffer (50 mM phosphate buffer, 0.167 mg/ml o-dianiside, 0.05% H2 O2, pH 6.0). Absorbance at 460 nm was measured at 15 min. Results shown in Table IV were calculated as absorbance units/g dry weight.

[3] = tested on: polymorphonuclear neutrophils; assay: Adherence of PMN to serum coated wells, TNF-α; type: cell-based; settings: Homo sapiens, Polymorphonuclear neutrophil, 20 min, TNF-α 3 nM, read-out: IC50 to inhibit adhesion, TNF-α serum
Description: (§2) Several in vitro assays were employed to determine the ability of compounds of the invention to function as anti-inflammatory agents. One group of assays measured the ability of the compounds to inhibit adherence of polymorphonuclear neutrophils to serum coated wells (in the presence of either TNF-α or PAF) or to human umbilical vein endothelial cells (in the presence of INF-γ). Another group of assays measured the ability of the compounds to inhibit the release of elastase or superoxide from activated neutrophils. These assays were performed in the following manner.
(§3) Isolation of PMN: Blood was drawn into syringes containing heparin (1 U/mL), from human volunteers (free of any medication for at least 48 hrs). 30 mL of blood was layered over a gradient of 10 mL 1.077 g/mL Histpaque (Sigma, St. Louis, Mo.), and centrifuged at room temperature, 400×g for 20 min. All subsequent manipulations were carried out at room temperature, with endotoxin free reagents, and using polypropylene pipettes and tubes, to prevent activation of the PMN. The pinkish PMN layer immediately above the RBC was collected and washed 2× with Hank's buffered salt solution with calcium and magnesium, 0.2% glucose, and 10 mM HEPES, pH 7.2 (HBSS++) by centrifugation at 400×g for 10 min. Pellets were suspended in 8 mL 0.9% NaCl, and RBC lysed by the addition of 24 mL water for 40 sec, followed by the addition of 8 mL of 3.6% NaCl. After centrifugation at 200×g for 8 min, RBC ghosts were aspirated from the top of the PMN pellet, and cells washed with HBSS++. PMN adherence to protein substrates: 96 well tissue culture plates were coated with 10% pooled human serum (North American Biological,;, Miami, Fla.) in phosphate buffered saline (PBS) for 1 hr at 37° C., followed by washing 3× with PBS. Test compounds were prepared in DMSO as 100× stocks. PMN (4×10^6 /mL) were preincubated with test compounds for 10 min at 37° C. in serum-coated wells. Tumor necrosis factor (TNF-α) was added to 3 nM or platelet aggregation facor (PAF) to 1 μM, and adherence was carried out for 20 or 10 min, respectively. Nonadherent cells were aspirated, and wells washed two times with warm PBS with calcium and magnesium, with blotting of the inverted plate following each aspiration. Adherent PMN were quantitated using a BCA protein assay (Pierce, Rockford, Ill.).

[4] = tested on: neutrophils; assay: Superoxide production by PMN, PAF; type: cell-based; settings: Homo sapiens, Neutrophil; PAF 20 nM, TNF preincubation; read-out: IC50 to inhibit superoxide production, PAF/O2
Description: as §2
(§4) Superoxide production. Superoxide production by PMN was measured as the superoxide dismutase (SOD)-inhibitable reduction of ferricytochrome c. […] Therefore, subsequent experiments were performed in the presence of cytochrome c only. In all cases, experiments were carried out in 96 well plates. Before the addition of cells, plates were coated by incubating each well with 200 μl of 10% human serum for 1 h in 37° C. Plates were then washed several times with PBS containing 10 mM CaCl2 and MgCl2. Neutrophils, resuspended in Hank's balanced salt solution (HBSS) to a final concentration of 4×10^6 cells/ml, were preincubated with TNF (10 ng/ml) for 10 min at 37° C. in the presence of cytochrome c (75 μm). Experiments were then performed with 100 μl of this cell suspension added to each well, followed by the addition of 10 μl of an aqueous dilution of test compound (50 nm-[…]). Immediately after the addition of test compound, a 10 μl aliquot of activators (fMLP, 300 nM; PAF, 20 nM; C5a, 5 μg/ml) was added to each well. Plates were immediately transferred to a preheated Thermomax kinetic microplate reader and the change in absorbance at […] was recorded over a 3 min period.

[5] = tested on: neutrophils; assay: Superoxide production by PMN, fMLP; type: cell-based; settings: Homo sapiens, Neutrophil; fMLP 300 nM, TNF preincubation; read-out: IC50 to inhibit superoxide production, fMLP/O2
Description: as §2, §4

[6] = tested on: neutrophils; assay: Elastase release from neutrophils, fMLP; type: cell-based; settings: Homo sapiens, Neutrophil; fMLP 200 nM, cytochalasin b; read-out: IC50 to inhibit elastase release, fMLP/ER
Description: as §2
(§5) Elastase release. Neutrophils (5×10^6 /ml in HBSS) were preincubated for 5 min at 37° C. with cytochalasin b (5 μg/ml). Experiments were performed in microtubes (96 per rack) to which were added the cell suspension, test compound (50 nM-500 μM), and one of several activators (fMLP, 200 nM, C5a, 24 nM; PAF, 20nM). After incubation (30 min, 37° C.) the tubes were centrifuged (1 min, 1500 rpm) and the supernatants assayed for elastase activity according to the following protocol:
(§6) Specifically, 10 μl of purified human neutrophil elastase standard or of sample was added to 70 μl or 0.1M Tris pH 7.5, 0.5% Brij detergent and 10 μl or 5 mM elastase substrate (methoxysuccinyl-alanyl-alanyl-prolyl-valyl paranitroanilide) in a 96 well microliter plate. Plates were indubated for 60 min at 37° C. and absorbance was read at 410 nm on a microplate reader. Elastase activity was quantitated relative to standards.

[7] = tested on: neutrophils; assay: Elastase release from neutrophils, PAF; type: cell-based; settings: Homo sapiens, Neutrophil; PAF 20 nM, cytochalasin b; read-out: IC50 to inhibit elastase release, PAF/ER
Description: as §2, §5, §6

[8] = tested on: polymorphonuclear neutrophils; assay: Adherence of PMN to serum coated wells, PAF; type: cell-based; settings: Homo sapiens, Polymorphonuclear neutrophil, 10 min, PAF 1 μM, read-out: IC50 to inhibit adhesion, PAF serum
Description: as §2, §3

[9] = tested on: human umbilical vein endothelial cells; assay: INF-γ HUVEC assay: adherence of PMN to human umbilical vein endothelial cells; type: cell-based; settings: HUVECs with INF-γ 1 unit/mL 20 hrs, PMN activated with 50 ng/mL TNF, read-out: IC50 to inhibit adhesion, IFN-γ HUVECS
Description: as §2, §3
INF-γHUVEC Assay. Primary human umbilical vein endothelial cells (HUVECs) from Clonetics Corp. (San Diego, Calif.) were seeded at 20,000 cells per wall in a 96 well tissue culture plate that was coated with fibronectin, for 45 min and then twice rinsed with phosphate buffered saline. To the culture media (M199, 80%; FBS, 20%; […] endothelial cell growth factor (Maciag et all, Proc. Natl. Acad. Sci. USA (1979) 76(11):5674-5678), 0.1 mg/mL heparin; 5% CO2; 37° C.) was added INF-γ (R&D Systems) at 1 unit/mL for 20 hrs. Isolated PMNs were loaded with the fluorescent dye BCECF AM (Molecular Probes) by incubating 1×10^7 cells/mL in HBSS with 4 μM dye for 30 min at 37° C. The PMNs were incubated with test compound for 10 min at 37° C., then activated with 50 ng/mL TNF and immediately added to the HUVECs which had been rinsed twice with HBSS+1% human serum. The co-culture plate was incubated at 37° C. for 20 min followed by gentle washing (twice) with HBSS+1% human serum. The extent of adherence was assessed by measuring the amount of fluorescence (485-535 nm filter) in each well with a fluorescence plate reader (Idexx).

[10] = Neutrophil, mouse, i.v., thioglycollate-induced peritonitis, 4 hrs, read-out: ED50

IC50 [3] [µM] | IC50 [4] [µM] | IC50 [5] [µM] | IC50 [6] [µM] | IC50 [7] [µM] | IC50 [8] [µM] | IC50 [9] [µM] | Compound | ED50 ([1]; 4 h) [mg/kg] | % Inhibition of neutrophil accumulation ([1]; mouse, i.v., 0.3 mg/kg, 4 hrs) [%] | % Inhibition of neutrophil accumulation ([1]; mouse, i.v., 1 mg/kg, 4 hrs) [%] | % Inhibition of neutrophil accumulation ([1]; mouse, i.v., 3 mg/kg, 4 hrs) [%] | % Inhibition of neutrophil accumulation ([1]; mouse, i.v., 10 mg/kg, 4 hrs) [%] | % Inhibition of neutrophil accumulation ([1]; mouse, i.v., 30 mg/kg, 4 hrs) [%] | Reverse Passive Arthus % Inhibition [2] [%] | ED50 [1, 10] [mg/kg] | % Inhibition of neutrophil accumulation ([1]; mouse, i.v., 60 mg/kg, 4 hrs) [%] | ED50 [2] [mg/kg]
1.8 | 0.3 | 0.15 | 1.2 | 0.81 | 0.41 | 30 | O=C(O)c1ccc(/C=C/c2ccccc2-c2ccc(Cl)c(Cl)c2)cc1 [NPC 18818, 4-{2-[2-(3,4-dichlorophenyl)phenyl]-(E)-ethenyl] benzoic acid] |  |  |  | 35 | 34 | 52 | 8 | < 30 |  | 
 |  |  |  |  | 0.64 |  | O=C(O)c1ccc(/C=C/c2ccccc2-c2cc3ccccc3o2)cc1 [NPC 18915, 4-{2-[2-(2-benzofuranyl)phenyl]-(E)-ethenyl} benzoic acid] |  |  |  |  |  |  |  |  |  | 

More lines, now with the values behind:

Compound | IC50 [3] [µM] | IC50 [4] [µM] | IC50 [5] [µM] | IC50 [6] [µM] | IC50 [7] [µM] | IC50 [8] [µM] | IC50 [9] [µM] | ED50 ([1]; 4 h) [mg/kg] | % Inhibition of neutrophil accumulation ([1]; mouse, i.v., 0.3 mg/kg, 4 hrs) [%] | % Inhibition of neutrophil accumulation ([1]; mouse, i.v., 1 mg/kg, 4 hrs) [%] | % Inhibition of neutrophil accumulation ([1]; mouse, i.v., 3 mg/kg, 4 hrs) [%] | % Inhibition of neutrophil accumulation ([1]; mouse, i.v., 10 mg/kg, 4 hrs) [%] | % Inhibition of neutrophil accumulation ([1]; mouse, i.v., 30 mg/kg, 4 hrs) [%] | Reverse Passive Arthus % Inhibition [2] [%] | ED50 [1, 10] [mg/kg] | % Inhibition of neutrophil accumulation ([1]; mouse, i.v., 60 mg/kg, 4 hrs) [%] | ED50 [2] [mg/kg]
O=C(O)c1ccc(/C=C/c2ccccc2-c2ccccc2)cc1 [NPC 18730, 4-[2-(biphenyl)-E-ethenyl]benzoic acid] | 2.9 | 3 | 0.34 | 6.25 | 3.23 | 2.4 | 25.7 | 0.8 | 16 | 20 | 67 | 37 | 48 | 40 |  |  | 
O=C(O)c1ccc(CCc2ccccc2-c2ccccc2)cc1 [NPC 18731, 4-[2-(biphenyl)ethyl]benzoic acid] | 6.4 |  |  | 8.7 | 19.9 | 6.5 | 28 |  |  |  | 22 | 44 | 59 | 40 | 4 | 59 | 0.1
O=C(O)c1ccc(C=Cc2ccccc2Oc2ccccc2)cc1 [NPC 18801, 2'-phenoxy-4-stilbenecarboxylic acid] | 6.9 | 0.52 | 0.15 | 7.5 | 0.6 | 0.86 | 52.4 |  |  |  | 36 | 65 | 65 | 3 | < 10 |  | 
O=C(O)c1ccc(/C=C/c2ccccc2-c2ccc3ccccc3c2)cc1 [NPC 18812, 4-{2-[2-(2-naphthyl)phenyl]-(E)-ethenyl}benzoic acid] | 3.6 |  |  |  | 7.6 | 1.17 | 14.5 |  |  |  | 12 | 50 | 71 | 29 | 7 | 94 | 0.5
